How the values were obtained:
[1] = Antioxidant activity assessed as AAPH-induced radical scavenging activity by measuring trolox equivalents for oxygen radical absorbance capacity measured every minute for 90 mins by ORAC-FL assay; format: functional
[2] = biological target: T1, Amine oxidase [flavin-containing] A (Homo sapiens, UniProt P21397); test: Inhibition of recombinant human MAOA expressed in baculovirus infected in BTI cells at 10 uM using kynuramine as substrate after 30 mins by fluorescence based assay relative to control; conditions: 0.5 h
T1 sequence (P21397 whole entry): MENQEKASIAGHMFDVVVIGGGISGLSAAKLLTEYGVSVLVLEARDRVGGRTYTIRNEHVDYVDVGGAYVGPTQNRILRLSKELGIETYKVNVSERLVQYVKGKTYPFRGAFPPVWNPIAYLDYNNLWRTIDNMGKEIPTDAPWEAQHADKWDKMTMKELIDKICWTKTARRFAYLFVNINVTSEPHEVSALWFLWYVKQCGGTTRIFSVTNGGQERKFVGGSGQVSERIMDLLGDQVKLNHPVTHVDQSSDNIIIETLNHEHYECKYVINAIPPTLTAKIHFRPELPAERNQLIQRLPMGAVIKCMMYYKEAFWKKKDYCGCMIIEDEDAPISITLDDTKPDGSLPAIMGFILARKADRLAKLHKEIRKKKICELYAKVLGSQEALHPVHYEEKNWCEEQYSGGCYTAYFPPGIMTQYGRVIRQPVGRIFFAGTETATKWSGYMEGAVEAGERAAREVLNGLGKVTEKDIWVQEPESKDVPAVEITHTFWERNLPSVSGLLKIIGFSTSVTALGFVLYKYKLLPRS

[3] = biological target: T2, Amine oxidase [flavin-containing] B (Homo sapiens, UniProt P27338); test: Inhibition of recombinant human MAOB expressed in baculovirus infected in BTI cells at 10 uM using kynuramine as substrate after 30 mins by fluorescence based assay relative to control; conditions: 0.5 h
T2 sequence (P27338 whole entry): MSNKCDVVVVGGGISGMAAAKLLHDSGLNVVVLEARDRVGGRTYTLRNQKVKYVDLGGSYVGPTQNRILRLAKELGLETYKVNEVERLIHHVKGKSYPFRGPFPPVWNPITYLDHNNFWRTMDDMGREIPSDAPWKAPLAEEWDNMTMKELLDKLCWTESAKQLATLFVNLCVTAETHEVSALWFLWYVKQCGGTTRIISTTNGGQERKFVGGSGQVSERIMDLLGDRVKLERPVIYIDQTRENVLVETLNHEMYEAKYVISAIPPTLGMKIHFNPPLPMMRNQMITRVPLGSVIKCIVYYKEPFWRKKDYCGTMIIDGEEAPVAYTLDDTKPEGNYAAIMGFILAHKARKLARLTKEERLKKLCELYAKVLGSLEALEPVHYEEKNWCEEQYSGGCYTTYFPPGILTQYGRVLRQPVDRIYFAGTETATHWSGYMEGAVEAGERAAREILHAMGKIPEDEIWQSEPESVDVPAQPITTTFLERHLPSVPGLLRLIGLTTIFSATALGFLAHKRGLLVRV

[4] = biological target: Amyloid-beta precursor protein (Homo sapiens) (UniProt P05067); test: Inhibition of HFIP-pretreated amyloid beta (1 to 42) (unknown origin) self-aggregation at 25 uM after 24 hrs by thioflavin-T fluorescence assay relative to control
[5] = biological target: Amyloid-beta precursor protein (Homo sapiens) (UniProt P05067); test: Inhibition of Cu2+-induced HFIP-pretreated amyloid beta (1 to 42) (unknown origin) aggregation at 25 uM measured after 24 hrs by thioflavin-T fluorescence assay relative to control
[6] = biological target: Amyloid-beta precursor protein (Homo sapiens) (UniProt P05067); test: Disaggregation of self-induced amyloid beta (1 to 42) (unknown origin) preformed fibrils at 25 uM measured after 24 hrs by thioflavin-T fluorescence assay relative to control
[7] = biological target: T2, Amine oxidase [flavin-containing] B; test: Inhibition of recombinant human MAOB expressed in baculovirus infected in BTI cells using kynuramine as substrate after 30 mins by fluorescence based assay; format: cell-based

Chain of Amyloid-beta precursor protein (Homo sapiens) (P05067 whole entry): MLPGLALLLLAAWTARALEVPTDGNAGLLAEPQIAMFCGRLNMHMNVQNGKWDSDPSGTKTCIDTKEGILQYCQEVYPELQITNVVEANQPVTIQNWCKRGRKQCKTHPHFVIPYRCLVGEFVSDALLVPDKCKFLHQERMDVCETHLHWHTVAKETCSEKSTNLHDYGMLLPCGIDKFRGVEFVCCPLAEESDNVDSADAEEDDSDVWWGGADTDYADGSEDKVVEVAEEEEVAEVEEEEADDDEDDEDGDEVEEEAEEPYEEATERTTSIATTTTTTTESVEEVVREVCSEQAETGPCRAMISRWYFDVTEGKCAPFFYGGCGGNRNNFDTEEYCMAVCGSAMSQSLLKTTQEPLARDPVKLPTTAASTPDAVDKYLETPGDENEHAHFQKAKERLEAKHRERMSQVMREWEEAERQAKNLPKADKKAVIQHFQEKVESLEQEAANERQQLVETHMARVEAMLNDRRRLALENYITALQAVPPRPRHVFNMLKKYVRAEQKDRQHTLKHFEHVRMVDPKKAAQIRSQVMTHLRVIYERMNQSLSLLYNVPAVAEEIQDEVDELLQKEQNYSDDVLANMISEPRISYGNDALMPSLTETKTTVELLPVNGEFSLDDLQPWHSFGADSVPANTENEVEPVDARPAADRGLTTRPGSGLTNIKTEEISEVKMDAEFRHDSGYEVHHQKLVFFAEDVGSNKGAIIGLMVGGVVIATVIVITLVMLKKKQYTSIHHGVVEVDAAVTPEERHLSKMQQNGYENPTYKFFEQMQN

| inhibition at 10 µM [2] [%] | inhibition at 10 µM [3] [%] | inhibition [4] [%] | inhibition [5] [%] | Activity [6] [%] | IC50 [7] [µM] | Compound | Activity [1] [µMequiv/µM] |
| --- | --- | --- | --- | --- | --- | --- | --- |
| 17.8 | 36 | 58.2 | 38.3 | 49.3 | – | COC(=O)C(C)c1ccc(-c2ccc(NCc3cc(CN(C)C)cc(OC)c3O)cc2)c(F)c1 (stereo not drawn) | 2.07 |
| 19.9 | < 5 | 68.6 | 41.9 | 45.1 | – | COC(=O)C(C)c1ccc(-c2ccc(NCc3cccc(CN(C)C)c3O)cc2)c(F)c1 (stereo not drawn) | 2.18 |
| 28.4 | 33.4 | 73.6 | 43.6 | 53.3 | – | COC(=O)C(C)c1ccc(-c2ccc(NCc3cc(OC)ccc3O)cc2)c(F)c1 (stereo not drawn) | 2.05 |
| 21.9 | 11.4 | 58.5 | 49.7 | 42.6 | – | COC(=O)C(C)c1ccc(-c2ccc(NCc3cc(C)ccc3O)cc2)c(F)c1 (stereo not drawn) | 1.56 |
| 17.9 | 16.4 | 57.9 | 38.3 | 35.9 | – | COC(=O)C(C)c1ccc(-c2ccc(NCc3cc(Br)cc(Br)c3O)cc2)c(F)c1 (stereo not drawn) | 1.42 |
| 18.2 | 25.8 | 29.4 | 29.4 | 30.2 | – | COC(=O)C(C)c1ccc(-c2ccc(NCc3cc(CN4CCCCC4)ccc3O)cc2)c(F)c1 (stereo not drawn) | 2.14 |
| 10.5 | 11.7 | 46.2 | 39.9 | 41.7 | – | COC(=O)C(C)c1ccc(-c2ccc(NCc3cccc(OC)c3O)cc2)c(F)c1 (stereo not drawn) | 1.68 |

Second part, the compound before the results:

| Compound | inhibition at 10 µM [2] [%] | inhibition at 10 µM [3] [%] | inhibition [4] [%] | inhibition [5] [%] | Activity [6] [%] | IC50 [7] [µM] | Activity [1] [µMequiv/µM] |
| --- | --- | --- | --- | --- | --- | --- | --- |
| COC(=O)C(C)c1ccc(-c2ccc(NCc3ccc(OC)cc3O)cc2)c(F)c1 (stereo not drawn) | 11.2 | 22.9 | 32.8 | 30.6 | 25.6 | – | 1.96 |
| Oc1c(I)cc(Cl)c2cccnc12 | – | – | 62.4 | 40.1 | 51.1 | – | 0.54 |
| COC(=O)C(C)c1ccc(-c2ccc(NCc3cc(Cl)ccc3O)cc2)c(F)c1 (stereo not drawn) | 30.6 | < 5 | 48.3 | 41.9 | 41.9 | – | 1.32 |
| COC(=O)C(C)c1ccc(-c2ccc(NCc3cc(Br)ccc3O)cc2)c(F)c1 (stereo not drawn) | 29.3 | 28.4 | 37 | 32 | 36.6 | – | 1.37 |
| COc1cc(/C=C/C(=O)CC(=O)/C=C/c2ccc(O)c(OC)c2)ccc1O | – | – | 32.5 | 32.5 | – | – | – |
| COC(=O)C(C)c1ccc(-c2ccc(NCc3nc(C)c(C)nc3C)cc2)c(F)c1 (stereo not drawn) | 20.4 | 42.5 | 27.5 | 22.5 | 18.3 | 15.1 | 1.69 |
| COC(=O)C(C)c1ccc(-c2ccc(NCc3ccccn3)cc2)c(F)c1 (stereo not drawn) | 36.8 | 45.8 | 48.3 | 37.8 | 35.5 | 16.6 | 1.15 |
| COC(=O)C(C)c1ccc(-c2ccc(NCc3cccc(CN4CCCCC4)c3O)cc2)c(F)c1 (stereo not drawn) | < 5 | < 5 | 48.8 | 42.4 | 43.3 | – | 2.02 |
| COC(=O)C(C)c1ccc(-c2ccc(NCc3cc(CN(C)C)ccc3O)cc2)c(F)c1 (stereo not drawn) | 22.4 | 32.8 | 43 | 43.7 | 51.2 | – | 1.92 |
| COC(=O)C(C)c1ccc(-c2ccc(NCc3ccccc3O)cc2)c(F)c1 (stereo not drawn) | 15.9 | < 5 | 24.7 | 42.9 | 44.1 | – | 1.51 |

Reference: ChEMBL document CHEMBL4627303, “Design, synthesis and evaluation of flurbiprofen-clioquinol hybrids as multitarget-directed ligands against Alzheimer's disease” (Bioorg Med Chem, 2020)
